Assay results taken from patent US9464064B2, “HCV helicase inhibitors and methods of use thereof” (University of Kansas, priority 2011, dated 2016).
Where two headings read alike, the source gives them in different places.

Columns and labels:
MBHA DNA substrate [1] = assay: Fluorescent intercalation displacement (FID) assay, ethidium bromide; format: binding; conditions: for EC50: FID, mean ± SD, read-out: DNA Binding (Ethidium Bromide) EC50
Procedure: Fluorescent intercalation displacement (FID) assays (Boger, et al. (2001) J. Am. Chem. Soc. 123:5878-5891) were used to measure the ability of a compound to bind the MBHA substrate. The concentration at which half the ethidium bromide is displaced (EC50) was determined using the different conditions as above to more closely mimic the conditions of a standard helicase assay. Each 100 μL reaction contained 25 mM MOPS pH 6.5, 0.16 μM MBHA DNA substrate (lacking Cy5 and IBQ-RQ modifications), 2 μM ethidium bromide, and various concentrations of test compound. Fluorescence of ethidium bromide was monitored using excitation and emission wavelengths of 545 and 595 nm, respectively, on a Cary Eclipse fluorescence spectrophotometer in white 96-well plates. The amount of ethidium bromide-DNA complex fluorescence was used to estimate the ability of compounds to bind DNA, and therefore displace the fluorescent intercalator (ethidium bromide).
In Equation 4, Fc is the fluorescence in the presence of the compound, F(−) is the average DMSO-only negative controls, and F(+) is the average positive controls (100 μM berenil). EC50 values were from a normalized dose-response curve.
These twelve hits were then subjected to a counterscreen designed to independently identify DNA binding compounds using a modified fluorescent intercalator displacement (FID) assay (Boger, et al. (2001) supra). The FID assay used ethidium bromide to judge a compound's ability to bind DNA and was based on the assumption that a DNA binding compound would displace a fluorescent DNA intercalating agent, leading to an observable decrease in observed fluorescence. Compounds were tested at 1.5 μM in the presence of the 25 base pair substrate used in the helicase assays.

MBHA DNA substrate [2] = assay: Modified FID assay, SYBR Green I; format: binding; conditions: FID; mean ± SD; read-out: DNA Binding (SYBR Green I) EC50
Procedure: A modified FID assay, in which ethidium bromide was replaced with SYBR Green I (Invitrogen), was used to estimate a compounds affinity for the MBHA substrate. Reactions were performed as described above except that the DNA substrate was present at 0.32 μM, ethidium bromide was absent, and SYBER Green was present at (0.68 μM). Data were normalized as described above and fit to concentration-response equation using GraphPad Prism software. Titrations with each compound were performed in triplicate, and EC50 values from three independent titrations are reported ±standard deviations.

[3] = biological target: T1, HCV NS3 helicase NS3h_1b(con1) (Hepatitis C virus genotype 1b, UniProt Q9WMX2); assay: biochemical; format: biochemical, hepatitis C virus genotype 1b(con1)
T1 construct: truncated C-terminally His-tagged NS3 proteins lacking the N-terminal protease, called NS3h; His-tag (C); made in house
From the text: All oligonucleotides were purchased from Integrated DNA Technologies (IDT, Coralville, Iowa). The partially duplex DNA substrates used in MBHAs consisted of a helicase substrate forming 25 base pairs and consists of a 45-mer bottom strand 5′-GCTCCCCGTTCATCGATTGGGGAGC(T)20-3′ (SEQ ID NO:1) and the 25-mer HCV top strand 5′-Cy5-GCTCCCCAATCGATGAACGGGGAGC-IBRQ-3′ (SEQ ID NO:2). The 19 base pair RNA substrate used in MBHAs was composed of a 39 nucleotide long bottom strand 5′-AGU GCC UUG ACG AUA CAG C(U)20-3′ (SEQ ID NO:3) and the 24 nucleotide long top strand 5′-Tye^665-AGUGCGCUGUAUCGUCAAGGCACU-IBRQSp-3′ (SEQ ID NO:4). Underlined areas denote hairpin-forming regions. DNA and RNA substrates were annealed and purified as described previously (Belon & Frick (2008) BioTechniques 45:433-40, 442).
The cloning, expression, and purification of His-tagged recombinant HCV NS3 protein have been described previously (Lam, et al. (20030 J. Virol. 77:3950-61; Heck, et al. (2008) Antimicrob. Agents Chemother. 52:1901-11; Frick et al. (2010) Methods Mol. Biol. 587:223-233; Belon, et al. & Frick (2009) J. Mol. Biol. 388:851-864).
All molecular beacon-based helicase assays (MBHAs) were performed according to known methods (Belon & Frick (2008) supra; Belon & Frick (2009) supra). […] In each flat, black 384-well plate, 56 compounds were tested, in triplicate, along with three negative controls (DMSO only), three positive controls (500 nM dT20), and two wells with no enzyme. Fluorescence was read before ATP (F0) addition and 30 minutes after ATP was added to 1 mM (F30) using a Tecan Infinite M200 fluorescence microplate reader with excitation and emission wavelengths set to 643 and 670 nm, respectively. Percent inhibition was calculated with equation 1, and compound interference in the MBHA was calculated with equation 2.
To monitor helicase reaction kinetics and to calculate IC50 values, MBHAs were performed in 60 μL in white ½ area 96-well plates and measured in a Thermo Varioscan Multimode reader (Thermo Scientific) using the 643 nm excitation wavelength and 667 emission wavelengths. Reactions were again performed by first incubating all components except for ATP for two minutes, then initiated by injecting in 1/10 volume of ATP such that the final concentration of all components was as noted above. Conditions were as described above except that 5% v/v DMSO was present in each assay. Initial reaction velocities were calculated by fitting first-order decay equation to data obtained after ATP addition and calculating an initial velocity form the resulting amplitude and rate constant.
[formula] where, v0 is the velocity observed in DMSO-only controls inhibition, h is the Hillslope coefficient, [I] is the concentration of test compound.

Huh-7.5 cells = assay: Cell viability assay ([…]-GLO); format: cell-based, human; conditions: 10 μM
Procedure: To assess compound toxicity toward Huh-7.5 cells, cells were plated and treated as above and cell viability was assessed using the […]-GLO luminescent cell viability kit (PROMEGA) following the manufacturer's instructions. Briefly, at the end of a 72 hour incubation period, the medium was aspirated and the cells were washed with 1×PBS, then an equal volume of growth medium and […]-GLO reagent was added and the lysis was initiated by mixing on an orbital shaker. The plate was incubated at 23° C. for 30 minutes and the luciferase activity was measured for 1 second using the FLUOSTAR Omega microplate reader (BMG Labtech).

NS3h_1b(con1) = biological target: T2, NS3h_1b(con1) (Hepatitis C virus genotype 1b, UniProt Q9WMX2); assay: ATP hydrolysis assay (malachite green); format: biochemical
T2 construct: truncated C-terminally His-tagged NS3 proteins lacking the N-terminal protease, called NS3h; His-tag (C); made in house
Procedure: A modified “malachite green” assay (Lanzetta, et al. (1979) Anal. Biochem. 100:95-97) was used to measure ATP hydrolysis. Fifty μL reactions contained 25 mM MOPS pH 6.5, 5 mM MgCl2, 2 mM ATP, 5 μg/mL BSA, 0.01% (v/v) TWEEN 20, 0.05 mM DTT, and poly(U) RNA (Saint Louis, Mo.) as indicated. Reactions were initiated by adding NS3h_1b(con1). Reactions were incubated for 15 minutes at 37° C. then stopped by mixing 40 μL of the reaction into 200 μL of the malachite green reagent (3 volumes 0.045% (w/v) malachite green, 1 volume 4.2% ammonium molybdate in 4N HCl, 0.05 volume of 20% TWEEN 20). […] Absorbance at 630 nm was proportional to the concentration of phosphate produced; free phosphate produced was measured against a standard curve.

[4] = biological target: T1, HCV NS3 helicase NS3h_1b(con1); assay: MBHA screen of NCI mechanistic set library at 20 μM (percent inhibition, compound interference); format: biochemical; conditions: compounds at 20 μM, MBHA with DNA substrate; for Int.* (Ratio) (Interference): assay interference calculated with Equation 2; for Inh. (%) (Inhibition): calculated from Equation 1
Summary of the method: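 Molecular beacon-based DNA unwinding assay; compounds screened at 20 μM in triplicate, with DMSO-only negative and 500 nM dT20 positive controls. Fluorescence (ex 643/em 670 nm) was read before and 30 min after adding ATP to 1 mM. Percent inhibition came from the change relative to DMSO controls; interference from pre-ATP fluorescence versus DMSO controls.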

[5] = biological target: T3, E. coli SSB-Cy5-dT15 complex (Escherichia coli, UniProt P0AGE0); assay: Escherichia coli SSB Cy5-dT15 binding assay (fluorescence polarization); conditions: disruption of Cy5-dT15-SSB complex; read-out: Cy5-dT15-SSB Binding IC50
T3 construct: purchased Promega
Procedure: The Escherichia coli SSB assay was performed in a total volume of 20.2 μl in 384-well, flat-bottom, low volume, black microplates (Greiner Bio-One). First, 20 μl of a assay solution (5 nM Cy5-[…]-3′ (Cy5-dT15, SEQ ID NO:5), 20 nM E. coli SSB (Promega), 25 mM MOPS, pH 7.5, 1.25 mM MgCl2, 0.0025 mg/ml BSA, 0.005% (v/v) TWEEN 20 and 0.025 mM DTT) was dispensed in each well, then 0.2 μl of dimethylsulfoxide (DMSO) or compound dissolved in DMSO was added by pin transfer, such that the final concentration of DMSO was 1% (v/v) in each assay.
For IC50 determination, assays were performed with 60 μl total volume in black flat bottomed 384-well microplates (Corning). First, 3.0 μl of DMSO or compound dissolved in DMSO was added, such that the final concentration of DMSO was 5% (v/v) in each assay. Then 57 μl of a assay solution (5 nM Cy5-dT15, 20 nM SSB, 25 mM MOPS, pH 7.5, 1.25 mM MgCl2, 0.0025 mg/ml BSA, 0.005% (v/v) TWEEN 20 and 0.025 mM DTT) was dispensed in each well. Polarization was monitored with a TECAN Infinite M1000 PRO multi-mode microplate reader by exciting at 635 nm (5 nm bandwidth) and measuring total fluorescence intensity, parallel and perpendicular polarized light at 667 nm (20 nm bandwidth).

[6] = MBHA, DNA unwinding, mean ± SD of three titrations, read-out: Helicase IC50
[7] = standard HCV helicase MBHA (Table 9), read-out: DNA Unwinding IC50

T3 sequence (P0AGE0 2-178, one chain of several): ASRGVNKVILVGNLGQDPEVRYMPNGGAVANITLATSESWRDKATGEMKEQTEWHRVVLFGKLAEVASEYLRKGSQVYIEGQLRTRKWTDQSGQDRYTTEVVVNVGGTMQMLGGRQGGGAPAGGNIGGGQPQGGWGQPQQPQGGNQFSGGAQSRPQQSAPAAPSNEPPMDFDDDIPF
T1 sequence (Q9WMX2 1192-1657): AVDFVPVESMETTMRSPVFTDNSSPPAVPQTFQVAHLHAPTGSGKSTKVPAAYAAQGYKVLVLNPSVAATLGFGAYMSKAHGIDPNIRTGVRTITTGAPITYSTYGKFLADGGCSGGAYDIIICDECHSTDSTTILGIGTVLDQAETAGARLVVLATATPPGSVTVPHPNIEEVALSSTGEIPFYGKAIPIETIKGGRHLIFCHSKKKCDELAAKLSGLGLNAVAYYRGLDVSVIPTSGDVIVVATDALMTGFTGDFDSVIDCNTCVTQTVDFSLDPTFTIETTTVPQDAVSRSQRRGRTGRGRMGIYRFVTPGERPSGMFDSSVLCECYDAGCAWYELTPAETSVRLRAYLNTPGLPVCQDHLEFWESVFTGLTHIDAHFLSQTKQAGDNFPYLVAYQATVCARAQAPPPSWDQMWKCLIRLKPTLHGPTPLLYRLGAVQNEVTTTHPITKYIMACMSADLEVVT
T2 sequence (Q9WMX2 1192-1657): as above

IC50 (MBHA DNA substrate [1]; ethidium bromide FID, read-out: IC50 in FID assays (positive control)) [µM] | Int.* (Ratio) (Interference) [4] | Inh. (%) (Inhibition) [4] | Structure (SMILES) | EC50 (MBHA DNA substrate [2]) [µM] | EC50 (MBHA DNA substrate [1]) [µM] | IC50 [3, 6] [µM] | toxicity to cells (Huh-7.5 cells) | IC50 (NS3h_1b(con1)) [µM] | IC50 [5] [µM] | IC50 [3, 7] [µM]
1.6 ± 0.1 |  |  | N=C(N)c1ccc(N=NNc2ccc(C(=N)N)cc2)cc1 [Berenil, reference compound] |  |  |  |  |  |  | 
 |  |  | CCOc1ccc2c(NNC(=O)c3cnccn3)c3c(nc2c1)CCCC3 [Compound 1, reference compound] | > 100 | > 100 | > 100 | None of the comparison helicase inhibitors were particularly toxic at 10 μM except for 1 | > 100 |  | 
 |  |  | Cc1cc(C(O)(c2ccc(Nc3ccccc3)cc2)c2ccc(Nc3ccc(S(=O)(=O)O)cc3)cc2)ccc1N (stereo not shown) [Compound 3, reference compound] | 20 ± 2 | 4 ± 2 | 17 ± 7 |  | > 100 |  | 
 |  |  | CN1CCN(Cc2cc(CN3CCN(C)CC3)c(O)c(=O)c(CN3CCN(C)CC3)c2)CC1 [Compound 4, reference compound] | 74 ± 21 | > 100 | 19 ± 8 |  | > 100 |  | 
 | 0.38 | 45.1 | CN(C)c1ccc(C=c2c3ccccc3n3c2cc(-c2ccc(Cl)cc2)[n+]3C)cc1.O=S(=O)([O-])C(F)(F)F [Compound 699479] |  |  |  |  |  |  | 
 | 0.93 | −16.2 | CCCCn1c2c(n(CCCC)c1=S)-c1c(n(CCCC)c(=S)n1CCCC)SSSS2 [Compound 700582] |  |  |  |  |  |  | 
 |  |  | Cc1ccc2nc(-c3ccc(N)cc3)sc2c1S(=O)(=O)O [Compound P1a, 2-(4-aminophenyl)-6-methylbenzo[d]thiazole-7-sulfonic acid] | > 100 | > 100 | 70 ± 31 |  | > 100 | 13 ± 4 | 70 ± 31
 |  |  | Cc1cc2sc(-c3ccc(N)cc3)nc2cc1S(=O)(=O)O [Compound P1b, 2-(4-aminophenyl)-6-methylbenzo[d]thiazole-5-sulfonic acid] | > 100 | > 100 | 122 ± 5 |  | > 100 | 19 ± 8 | 122 ± 5
 |  |  | Cc1cc2sc(-c3ccc4nc(-c5ccc(N)cc5)sc4c3)nc2cc1S(=O)(=O)O [Compound P2b, 2′-(4-aminophenyl)-6-methyl-[2,6′-bibenzo[d]thiazole]-5-sulfonic acid] | 32 ± 3 | 73 ± 36 | 10 ± 4.6 |  | > 100 | 1 | 7 ± 4
 |  |  | CCN(CC)c1ccc(-c2nc3ccc(C)c(S(=O)(=O)O)c3s2)cc1 [Compound T1, 2-(4-(diethylamino)phenyl)-6-methylbenzo[d]thiazole-7-sulfonic acid] |  | > 100 | 33 ± 24 |  | > 100 | 7 ± 2 | 33 ± 24
 |  |  | CCN(CC)c1ccc(-c2nc3ccc(-c4nc5ccc(C)c(S(=O)(=O)O)c5s4)cc3s2)cc1 [Compound T2, 2′-(4-(diethylamino)phenyl)-6-methyl-[2,6′-bibenzo[d]thiazole]-7-sulfonic acid] |  | > 100 | 26 ± 21 |  |  | 2 | 5 ± 2
 |  |  | Cc1c2ccncc2c(C)c2c1[nH]c1ccccc12 [ellipticine, reference compound] |  |  | 5.6 ± 0.8 |  |  |  | 
